Assay [1] is described as follows: Cytotoxicity against human HL60 cells assessed as growth inhibition after 3 days. The assay is classed as functional, cell-based. To be noted: HL-60, 72 h.
Assay [2] is described as follows: Cytotoxicity against human IM9 cells assessed as growth inhibition after 3 days. The assay is classed as functional, cell-based. To be noted: IM-9, 72 h.
Assay [3] concerns the target T1, Nuclear factor NF-kappa-B complex (Homo sapiens) (UniProt Q00653+P19838+Q04206). The assay is described as follows: Inhibition of NF-kappaB in human IM9 cells assessed as inhibition of nuclear translocation at 10 uM after 30 mins by NF-kappaB (p65) transcription factor assay. The assay is classed as cell-based. The conditions noted are these: IM-9.
Assay [4] concerns the target T1, Nuclear factor NF-kappa-B complex (Homo sapiens). Nature of the assay: Inhibition of NF-kappaB in human IM9 cells assessed as inhibition of nuclear translocation at 1 uM after 30 mins by NF-kappaB (p65) transcription factor assay. The class given is cell-based. The conditions noted are these: IM-9.
A further assay has as its system HL-60. Nature of the assay: Cytotoxicity against human HL60 cells assessed as growth inhibition at 10 uM after 3 days. The assay is classed as functional, cell-based.
The test system of another assay is IM-9. The assay is described as follows: Cytotoxicity against human IM9 cells assessed as growth inhibition at 10 uM after 3 days. The assay is classed as functional, cell-based.

Structures are written as SMILES. Active and inactive are the calls of the source. The calls are words filed in the database; no cut-off is given here. Where only a bound is given, the exact number is not on record here.

T1 sequence (P19838 whole entry, looked up): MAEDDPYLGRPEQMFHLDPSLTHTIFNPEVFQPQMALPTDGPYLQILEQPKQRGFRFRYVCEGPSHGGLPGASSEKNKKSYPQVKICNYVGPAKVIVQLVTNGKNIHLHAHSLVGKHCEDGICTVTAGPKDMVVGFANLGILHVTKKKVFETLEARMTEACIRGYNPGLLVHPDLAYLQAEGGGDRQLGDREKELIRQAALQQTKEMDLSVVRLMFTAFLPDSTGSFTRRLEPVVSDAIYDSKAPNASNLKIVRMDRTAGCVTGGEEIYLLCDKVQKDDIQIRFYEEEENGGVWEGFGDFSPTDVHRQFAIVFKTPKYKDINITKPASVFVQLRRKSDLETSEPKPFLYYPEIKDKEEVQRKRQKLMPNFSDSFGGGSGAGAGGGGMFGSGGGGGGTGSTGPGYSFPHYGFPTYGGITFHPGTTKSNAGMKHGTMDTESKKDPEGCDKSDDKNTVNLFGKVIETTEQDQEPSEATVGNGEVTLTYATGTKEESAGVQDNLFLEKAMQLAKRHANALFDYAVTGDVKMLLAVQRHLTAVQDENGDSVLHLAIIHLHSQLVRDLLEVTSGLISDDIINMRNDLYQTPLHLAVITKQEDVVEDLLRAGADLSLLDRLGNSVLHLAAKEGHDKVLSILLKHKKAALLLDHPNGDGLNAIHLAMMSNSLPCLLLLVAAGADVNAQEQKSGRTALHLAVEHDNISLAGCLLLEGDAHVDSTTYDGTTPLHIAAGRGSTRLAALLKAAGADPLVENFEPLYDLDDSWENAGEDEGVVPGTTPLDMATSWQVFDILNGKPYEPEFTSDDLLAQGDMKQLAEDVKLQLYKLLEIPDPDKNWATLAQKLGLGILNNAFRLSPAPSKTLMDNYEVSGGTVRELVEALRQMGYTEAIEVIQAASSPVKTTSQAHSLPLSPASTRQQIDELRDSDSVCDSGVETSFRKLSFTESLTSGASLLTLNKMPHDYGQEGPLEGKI
T1 sequence (Q00653 whole entry, looked up): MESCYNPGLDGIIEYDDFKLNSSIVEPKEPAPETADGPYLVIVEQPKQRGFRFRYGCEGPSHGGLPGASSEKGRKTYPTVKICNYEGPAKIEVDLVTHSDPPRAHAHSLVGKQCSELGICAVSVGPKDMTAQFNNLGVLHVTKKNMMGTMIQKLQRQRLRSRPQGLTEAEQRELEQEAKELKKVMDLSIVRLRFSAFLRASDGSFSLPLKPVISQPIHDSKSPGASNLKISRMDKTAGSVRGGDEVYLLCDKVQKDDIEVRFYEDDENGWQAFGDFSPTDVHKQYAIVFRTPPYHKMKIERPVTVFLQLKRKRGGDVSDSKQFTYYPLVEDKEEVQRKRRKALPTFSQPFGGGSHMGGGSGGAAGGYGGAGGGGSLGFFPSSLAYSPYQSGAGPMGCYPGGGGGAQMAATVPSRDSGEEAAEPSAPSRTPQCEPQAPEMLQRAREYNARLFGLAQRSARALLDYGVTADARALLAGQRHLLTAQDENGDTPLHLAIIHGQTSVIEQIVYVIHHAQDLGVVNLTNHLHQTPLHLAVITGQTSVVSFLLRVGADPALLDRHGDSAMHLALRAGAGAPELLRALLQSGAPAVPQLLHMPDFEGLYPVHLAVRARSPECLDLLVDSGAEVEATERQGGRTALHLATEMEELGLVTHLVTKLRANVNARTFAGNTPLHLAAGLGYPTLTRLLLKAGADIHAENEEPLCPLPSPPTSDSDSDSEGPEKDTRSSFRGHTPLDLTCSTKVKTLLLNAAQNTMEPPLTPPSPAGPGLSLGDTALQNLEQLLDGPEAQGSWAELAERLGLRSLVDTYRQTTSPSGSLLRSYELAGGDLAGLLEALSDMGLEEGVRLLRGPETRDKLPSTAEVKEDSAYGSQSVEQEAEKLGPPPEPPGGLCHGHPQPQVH
T1 sequence (Q04206 whole entry, looked up): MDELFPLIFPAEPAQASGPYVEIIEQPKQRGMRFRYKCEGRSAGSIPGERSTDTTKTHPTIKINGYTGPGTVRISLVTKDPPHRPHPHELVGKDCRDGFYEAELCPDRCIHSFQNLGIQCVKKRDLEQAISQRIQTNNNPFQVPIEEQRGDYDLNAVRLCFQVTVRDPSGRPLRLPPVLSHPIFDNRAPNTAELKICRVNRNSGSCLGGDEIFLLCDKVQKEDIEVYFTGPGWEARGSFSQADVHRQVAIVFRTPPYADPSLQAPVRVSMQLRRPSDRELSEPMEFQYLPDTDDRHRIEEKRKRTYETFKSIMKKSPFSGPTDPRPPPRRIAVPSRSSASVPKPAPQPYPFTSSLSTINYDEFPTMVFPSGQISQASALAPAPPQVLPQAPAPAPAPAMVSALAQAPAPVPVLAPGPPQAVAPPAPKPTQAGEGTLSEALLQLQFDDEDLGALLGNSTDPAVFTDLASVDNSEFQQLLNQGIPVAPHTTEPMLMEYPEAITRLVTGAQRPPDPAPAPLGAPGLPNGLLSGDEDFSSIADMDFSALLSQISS

`CC(=O)Oc1ccc(C(OC(C)=O)c2cccc3ccccc23)cc1` (stereo not given): the IC50 (commonly the concentration that gives 50% inhibition) in assay [1] amounted to 290 nM.

On to `CC(=O)Oc1ccc2c(c1)CCc1ccccc1C2OC(C)=O` (stereo not given), for which, in assay [1], the IC50 was 2800 nM.

In the case of `C=C[C@H](OC(C)=O)c1ccc(OC(C)=O)cc1` [1'-ACETOXYCHAVICOL ACETATE], the half-inhibitory concentration (IC50) in assay [2] came to 2100 nM; in assay [1], 2000 nM. Moreover, the figures for the inhibition in assay [3] and in assay [4] were 70% and 0%, respectively.

On to `CC(=O)Nc1ccc(C(OC(C)=O)c2ccccc2)cc1` (stereo not given), for which the inhibition – broadly, the relative decrease from the control value, in per cent – in the assay on HL-60 was “inactive”.

As for `CC(=O)NC(c1ccccc1)c1ccc(OC(C)=O)cc1` (stereo not given), the inhibition entry with HL-60 is “inactive”.

Take `CC(=O)Oc1ccc(C(OC(C)=O)c2ccc3ccccc3c2)cc1` (stereo not given): the IC50 in assay [1] is 2200 nM.

For `CC(=O)Oc1ccc(C(OC(C)=O)c2cc(-c3ccccc3)cc(-c3ccccc3)c2)cc1` (stereo not given), in assay [1], the IC50 was found to be 1100 nM.

Take `CC(=O)Oc1ccc(C(OC(C)=O)c2ccccc2)cc1` (stereo not given): the values for the IC50 in assay [2] and in assay [1] were 2500 nM and 3500 nM, respectively. Further, the inhibition in assay [3] stood at 61%.

For the molecule `CC(=O)Oc1ccc2c(c1)-c1ccccc1C2OC(C)=O` (stereo not given), the inhibition entry (in assay [3]; with IM-9) was “inactive” each time. Also, in assay [1], the half-maximal inhibitory concentration (IC50) is more than 10000 nM.

Consider `CC(=O)Oc1ccc(C(OC(C)=O)c2c3ccccc3cc3ccccc23)cc1` (stereo not given), for which the IC50 is 230 nM in assay [2] and 120 nM in assay [1]. Moreover, the inhibition in assay [3] is 85%; in assay [4] it was 32%.

The record behind these values is ChEMBL document CHEMBL3399935, “Structure-activity relationships of benzhydrol derivatives based on 1'-acetoxychavicol acetate (ACA) and their inhibitory activities on multiple myeloma cell growth via inactivation of the NF-κB pathway” (Bioorg Med Chem, 2015).
